Test results reported in patent US20050130913A1, “Synergistic insecticidal mixtures” (priority 2002, published 2005).

Key:
Type in all cases: in vivo
[1] = system: mustard beetle larvae (Phaedon cochleariae); test: Phaedon larvae test (Example F); conditions: found effect, dipped cabbage leaves
Procedure: (§1) • Solvent: 7 parts by weight of dimethylformamide • Emulsifier: 2 parts by weight of alkylaryl polyglycol ether
(§2) After the desired period, the destruction in % is determined. 100% means that all of the beetle larvae have been destroyed; 0% means that no beetle larvae have been destroyed. The destruction values determined are calculated using Carpenter's formula.

[2] = system: army worm caterpillars (Spodoptera frugiperda); test: Spodoptera frugiperda test (Example G); conditions: found effect, dipped cabbage leaves
Procedure: (§3) Spodoptera frugiperda Test
as §1
(§4) Cabbage leaves (Brassica oleracea) are treated by being dipped into the active compound preparation of the desired concentration and are populated with army worm caterpillars (Spodoptera frugiperda) while the leaves are still moist.
(§5) After the desired period, the destruction in % is determined. 100% means that all of the caterpillars have been destroyed; 0% means that no caterpillars have been destroyed. The destruction values determined are calculated using Carpenter's formula.

[3] = system: diamond-back moth caterpillars (Plutella xylostella, resistant strain); test: Plutella test, resistant strain (Example D); conditions: found effect, dipped cabbage leaves
Procedure: Plutella Test, Resistant Strain
as §1
Cabbage leaves (Brassica oleracea) are treated by being dipped into the active compound preparation of the desired concentration and are populated with diamond-back moth caterpillars (Plutella xylostella, resistant strain) while the leaves are still moist.
as §5

[4] = system: Heliothis armigera caterpillars; conditions: found effect, dipped soya bean shoots (Glycine max)
Procedure: as §1
Soya bean shoots (Glycine max) are treated by being dipped into the active compound preparation of the desired concentration and are populated with Heliothis armigera caterpillars while the leaves are still moist.
After the desired period, the destruction in % is determined. 100% means that all of the caterpillars have been destroyed; 0% means that no caterpillars have been destroyed. The destruction values determined are calculated using Carpenter's formula (see previous page).

[5] = system: diamond-back moth caterpillars (Plutella xylostella, sensitive strain); test: Plutella test, sensitive strain (Example C); conditions: found effect, dipped cabbage leaves
Procedure: Plutella Test, Sensitive Strain
as §1
Cabbage leaves (Brassica oleracea) are treated by being dipped into the active compound preparation of the desired concentration and are populated with diamond-back moth caterpillars (Plutella xylostella, sensitive strain) while the leaves are still moist.
as §5

[6] = system: army worm caterpillars (Spodoptera frugiperda); conditions: found effect, dipped cabbage leaves
Procedure: as §3
• Solvent: 7 parts by weight of dimethylformamide • Emulsifier: 2 parts by weight of alkylaryl polyglycol ether.
as §4, §5

[7] = system: mustard beetle larvae (Phaedon cochleariae); conditions: found effect, dipped cabbage leaves (Brassica oleracea)
Procedure: as §1, §2

| Molecule | LC95 after 6 days [1] | LC95 after 6 days [2] | LC95 after 6 days [3] | LC50 after 6 days [4] | LC95 after 6 days [5] | LC50 after 6 days [6] | LC50 after 6 days [7] |
| --- | --- | --- | --- | --- | --- | --- | --- |
| CC[C@H](C)[C@H]1O[C@]2(C=C[C@@H]1C)C[C@@H]1C[C@@H](C/C=C(\C)[C@@H](O[C@H]3C[C@H](OC)[C@@H](O[C@H]4C[C@H](OC)[C@@H](O)[C@H](C)O4)[C@H](C)O3)[C@@H](C)/C=C/C=C3\CO[C@@H]4[C@H](O)C(C)=C[C@@H](C(=O)O1)[C@]34O)O2 [Avermectin, abamectin] | 0.345 ppm | 30.104 ppm |  |  |  |  |  |
| emamectin benzoate |  |  | 0.0033 ppm | 0.007 ppm | 0.0009 ppm | 0.0029 ppm | 0.026 ppm |
